What was measured:
[1] = target: T1, Xanthine dehydrogenase/oxidase (Homo sapiens, UniProt P47989); assay: Inhibition of XOR (unknown origin)
[2] = target: T2, Solute carrier family 22 member 12 (Homo sapiens, UniProt Q96S37); assay: Inhibition of human URAT1 expressed in HEK293T cells by assessed as 14C-uric acid uptake preincubated for 5 mins followed by 14C-uric acid addition and measured after 10 mins by liquid scintillation counting method; type: cell-based
T2 sequence (Q96S37 whole entry): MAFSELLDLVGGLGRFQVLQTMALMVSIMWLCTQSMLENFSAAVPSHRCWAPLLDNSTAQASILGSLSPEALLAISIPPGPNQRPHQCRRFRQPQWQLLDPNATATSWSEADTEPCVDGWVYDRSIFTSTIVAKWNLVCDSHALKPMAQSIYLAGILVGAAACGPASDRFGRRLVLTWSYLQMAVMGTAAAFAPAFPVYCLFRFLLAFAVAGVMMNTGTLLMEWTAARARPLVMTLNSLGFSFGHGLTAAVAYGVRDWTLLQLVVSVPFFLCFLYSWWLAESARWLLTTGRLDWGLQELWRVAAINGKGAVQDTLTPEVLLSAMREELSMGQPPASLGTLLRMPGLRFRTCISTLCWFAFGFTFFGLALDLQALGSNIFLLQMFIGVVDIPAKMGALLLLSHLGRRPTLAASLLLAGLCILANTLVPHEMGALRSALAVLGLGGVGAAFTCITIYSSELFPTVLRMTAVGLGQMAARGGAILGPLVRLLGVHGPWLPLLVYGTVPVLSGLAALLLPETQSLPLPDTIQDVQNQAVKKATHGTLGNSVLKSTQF

[3] = target: T1, Xanthine dehydrogenase/oxidase; assay: Inhibition of Xanthine oxidase (unknown origin)
[4] = target: T2, Solute carrier family 22 member 12; assay: Inhibition of URAT1 (unknown origin)
[5] = target: T2, Solute carrier family 22 member 12; assay: Inhibition of human URAT1 stably expressed in HEK293 cells by measuring 14C-uric acid uptake pre-incubated for 15 mins followed by 14C-uric acid addition and measured for 30 mins by liquid scintillation counter analysis; type: cell-based
[6] = target: T2, Solute carrier family 22 member 12; assay: Inhibition of human URAT1 stably expressed in HEK293T cells; type: cell-based
[7] = target: T2, Solute carrier family 22 member 12; assay: Inhibition of URAT1 (unknown origin) expressed in human HK-2 cells at 10 uM relative to control; type: cell-based; details: HK-2, human
[8] = target: T1, Xanthine dehydrogenase/oxidase; assay: Inhibition of xanthine oxidase (unknown origin) by absorbance based assay
[9] = target: T3, Solute carrier family 2, facilitated glucose transporter member 9 (Homo sapiens, UniProt Q9NRM0); assay: Inhibition of GLUT9 (unknown origin)
T3 sequence (Q9NRM0 whole entry): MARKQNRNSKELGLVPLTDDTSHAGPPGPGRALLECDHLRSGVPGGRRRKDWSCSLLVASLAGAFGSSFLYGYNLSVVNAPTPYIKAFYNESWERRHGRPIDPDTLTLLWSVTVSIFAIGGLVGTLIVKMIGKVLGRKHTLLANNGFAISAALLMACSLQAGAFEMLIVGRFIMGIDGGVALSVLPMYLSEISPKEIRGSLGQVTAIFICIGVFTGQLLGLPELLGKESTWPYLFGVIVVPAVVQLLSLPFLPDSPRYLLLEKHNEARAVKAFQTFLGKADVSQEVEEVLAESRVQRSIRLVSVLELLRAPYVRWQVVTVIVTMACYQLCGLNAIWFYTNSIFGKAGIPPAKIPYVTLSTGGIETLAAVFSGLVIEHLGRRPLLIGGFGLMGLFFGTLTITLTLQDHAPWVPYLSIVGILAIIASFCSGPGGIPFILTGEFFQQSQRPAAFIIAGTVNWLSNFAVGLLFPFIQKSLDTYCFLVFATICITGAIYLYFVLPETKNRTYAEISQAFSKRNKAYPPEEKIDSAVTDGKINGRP

T1 sequence (P47989 whole entry): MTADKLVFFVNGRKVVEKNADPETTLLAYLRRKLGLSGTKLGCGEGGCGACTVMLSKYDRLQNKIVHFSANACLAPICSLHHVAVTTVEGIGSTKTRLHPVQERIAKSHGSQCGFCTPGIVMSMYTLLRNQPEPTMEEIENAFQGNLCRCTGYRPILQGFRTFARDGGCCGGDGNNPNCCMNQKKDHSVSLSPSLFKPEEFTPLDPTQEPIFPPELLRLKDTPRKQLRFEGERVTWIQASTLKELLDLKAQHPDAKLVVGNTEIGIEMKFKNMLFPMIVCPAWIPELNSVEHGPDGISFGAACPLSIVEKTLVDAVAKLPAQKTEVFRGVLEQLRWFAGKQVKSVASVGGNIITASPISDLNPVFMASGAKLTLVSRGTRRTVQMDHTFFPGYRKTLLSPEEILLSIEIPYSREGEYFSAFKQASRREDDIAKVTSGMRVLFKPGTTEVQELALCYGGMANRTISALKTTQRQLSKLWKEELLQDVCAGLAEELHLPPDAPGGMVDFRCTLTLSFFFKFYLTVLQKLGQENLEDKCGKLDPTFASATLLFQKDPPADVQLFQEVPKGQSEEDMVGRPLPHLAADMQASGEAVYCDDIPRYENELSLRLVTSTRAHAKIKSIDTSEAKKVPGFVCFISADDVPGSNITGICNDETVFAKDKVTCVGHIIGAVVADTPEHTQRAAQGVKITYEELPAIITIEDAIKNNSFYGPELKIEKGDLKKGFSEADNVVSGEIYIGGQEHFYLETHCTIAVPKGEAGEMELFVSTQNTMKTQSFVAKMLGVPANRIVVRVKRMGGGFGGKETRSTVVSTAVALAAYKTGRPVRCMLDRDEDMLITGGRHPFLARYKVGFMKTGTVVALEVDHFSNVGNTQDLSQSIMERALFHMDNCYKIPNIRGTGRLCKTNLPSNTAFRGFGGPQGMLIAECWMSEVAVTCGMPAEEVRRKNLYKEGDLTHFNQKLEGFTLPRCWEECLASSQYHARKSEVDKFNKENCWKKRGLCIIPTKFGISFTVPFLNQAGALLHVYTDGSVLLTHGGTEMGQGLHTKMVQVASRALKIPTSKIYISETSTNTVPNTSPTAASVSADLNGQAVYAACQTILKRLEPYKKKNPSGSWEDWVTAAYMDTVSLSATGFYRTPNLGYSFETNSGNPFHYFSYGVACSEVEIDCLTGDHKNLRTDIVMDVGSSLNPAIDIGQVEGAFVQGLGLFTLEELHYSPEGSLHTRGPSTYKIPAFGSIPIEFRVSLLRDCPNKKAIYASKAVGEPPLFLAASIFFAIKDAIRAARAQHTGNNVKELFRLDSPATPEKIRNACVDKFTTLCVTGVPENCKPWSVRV

Row | IC50 [3] | IC50 [4] | SMILES | other results
1 |  |  | O=C(/C=C/c1ccc(O)c2oc(-c3ccc(O)c(O)c3)cc12)O[C@H](Cc1ccc(O)c(O)c1)C(=O)O | IC50 [1]: 9700 nM
2 |  |  | O=C(O)C1(Sc2ccccc2N2CCOc3ccc(Br)cc32)CCC1 | IC50 [2]: 1690 nM
3 | 3330 nM | 145 nM | O/N=C(\Cc1ccc(Br)cc1)c1ccc(O)cc1O | 
4 |  |  | CCCc1ccc(Cn2c(Br)nnc2SCC(=O)O)c2ccccc12 | IC50 [5]: 92 nM
5 | 12 nM | 30200 nM | CCn1c(=O)sc2cc(-c3ccc(C(=O)O)c(O)c3)ccc21 | 
6 |  |  | N#Cc1cc(-n2cnc(C(=O)O)c2)ccc1N1CCCCCC1 | IC50 [6]: 10800 nM
7 | 3300 nM |  | O=c1c2cc(O)c(O)cc2oc2cc(OCc3ccccc3)cc(O)c12 | 
8 |  |  | COc1cc2c3c(c1OS(=O)(=O)c1ccc(F)cc1)-c1ccccc1C[C@H]3N(C)CC2 | inhibition at 10 µM [7]: 61%
9 |  |  | COc1ccc(C2CC(=O)c3c(O)cc(O)cc3O2)cc1O (configuration not stated) | IC50 [8]: 840 nM
10 | 10 nM |  | Cc1nc(-c2ccc(OCC(C)C)c(C#N)c2)sc1C(=O)O [FEBUXOSTAT] | 
11 | 14400 nM | 240 nM | CC(C)=CCc1c(O)ccc2c1O[C@H](c1ccc(O)cc1)CC2=O [ISOBAVACHIN] | IC50 [9]: 1120 nM
12 |  | 53 nM | O=C(O)C1(Sc2ccnc3ccc(Br)cc23)CCC1 [SHR-4640] | 
13 |  |  | N#Cc1cc(-c2n[nH]c(-c3ccncc3)n2)ccn1 [TOPIROXOSTAT] | IC50 [1]: 15 nM
